Assay results taken from patent publication US5527796A, “Thienothiazine derivatives and their use” (Chemisch Pharmazeutische Forschungsgesellschaft m.b.H., priority 1992, dated 1996).
pIC50: −log10 of the molar value.

How the values were obtained:
5-lipoxygenase = biological target: T1, 5-lipoxygenase (Rattus norvegicus, UniProt P12527); assay: formation of LTB4 by neutrophils as a measure for 5-lipoxygenase activity (A23187-stimulated, RIA); type: cell-based, Male Sprague Dawley rats; details: A23187 2 μmol/l, 5 min at 37° C.
T1 construct: neutrophils harvested by aspiration; endogenous in cells; host or cells: peritoneal neutrophils of male Sprague Dawley rats, harvested 16 h after intraperitoneal carrageenan
T1 sequence (P12527 1-673): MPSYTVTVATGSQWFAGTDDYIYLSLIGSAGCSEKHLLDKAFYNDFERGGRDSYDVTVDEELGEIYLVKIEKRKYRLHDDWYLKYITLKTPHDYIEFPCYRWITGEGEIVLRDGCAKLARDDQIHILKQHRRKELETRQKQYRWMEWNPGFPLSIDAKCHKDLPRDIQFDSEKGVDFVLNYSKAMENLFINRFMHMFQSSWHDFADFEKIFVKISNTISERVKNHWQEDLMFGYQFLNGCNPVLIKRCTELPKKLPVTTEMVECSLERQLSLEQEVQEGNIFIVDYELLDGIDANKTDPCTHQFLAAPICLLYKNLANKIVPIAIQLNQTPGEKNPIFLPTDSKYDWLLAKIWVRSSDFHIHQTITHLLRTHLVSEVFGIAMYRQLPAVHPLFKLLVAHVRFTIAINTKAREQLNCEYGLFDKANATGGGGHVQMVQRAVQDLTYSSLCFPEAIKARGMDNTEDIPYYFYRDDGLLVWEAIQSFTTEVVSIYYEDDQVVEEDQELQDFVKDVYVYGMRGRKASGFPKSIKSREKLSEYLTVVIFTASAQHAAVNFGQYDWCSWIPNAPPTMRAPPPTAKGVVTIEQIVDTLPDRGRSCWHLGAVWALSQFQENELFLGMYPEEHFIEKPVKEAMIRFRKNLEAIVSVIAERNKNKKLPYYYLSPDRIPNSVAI
Experimental: (§1) The formation of PGD2 by neutrophils was used as a measure for cyclooxygenase activity and the formation of LTB4 was used as a measure for 5-lipoxygenase activity.
(§2) Male Sprague Dawley rats (250-300 g) were injected with lambda carrageenan 1 mg intraperitoneally (dissolved in 0.5 ml dest.water) per animal. After 16 hours the rats were killed by exposure to diethylether. 15 ml ice cold Hanks balanced salt solution were injected i.p., neutrophils harvested by aspiration (10 ml), centrifuged (5 min, 100 g, 4° C.), the supernatant decanted and cells resuspended in HBSS at 4° C. to 5×10^6 cells/mi. 400 μl cell suspension (2×10^6 cells), 0.5 μl drugs dissolved in DMSO and 49.5 μl HBSS were incubated for 5 min at 37° C. Then 50 μl A23187 (2 μmol/l final conc.) were added followed by 5 min incubation at 37° C. The reaction was stopped by centrifugation for 30 s at 10000 g and the supernatant transferred to precooled plastic tubes and kept in an ice bath for max. 1 hour before starting RIA. PGD2 and LTB4 in the samples were measured after appropriate dilution with HBSS using commercial RIA kits.
(§3) Using the above mentioned methods the new compounds were tested. The inhibition of cyclooxygenase and of 5-lipoxygenase was measured.

cyclooxygenase = assay: formation of PGD2 by neutrophils as a measure for cyclooxygenase activity (A23187-stimulated, RIA); type: cell-based, Male Sprague Dawley rats; details: for pIC50: rat neutrophils, A23187 2 μmol/l, 5 min at 37° C., RIA of PGD2
Experimental: as §1, §2, §3

Row | pIC50 (5-lipoxygenase) | pIC50 (cyclooxygenase) | SMILES | inhibition of cyclooxygenase (in words) (cyclooxygenase; PGD2 formation)
1 | 5.57 | 6.72 | CN1C(C(=O)Nc2cccc(CCc3ccccc3)n2)=C(O)c2sc(Cl)cc2S1(=O)=O [Example 4, 6-Chloro-4-hydroxy-2-methyl-N-[6-(2-phenylethyl)-2-pyridyl]-2H-thieno[2,3-e]-1,2-thiazine-3-carboxamide-1,1-dioxide] | 
2 | 5.43 | 6.39 | CN1C(C(=O)Nc2cccc(C#Cc3ccccc3)n2)=C(O)c2sc(Cl)cc2S1(=O)=O [Example 7, 6-Chloro-4-hydroxy-2-methyl-N-[6-phenylethinyl]-2-pyridyl-2H-thieno[2,3-e]-1,2-thiazin-3-carbox-amide-1,1,-dioxide] | 
3 | 5.38 | 6.29 | CN1C(C(=O)Nc2cccc(CCCc3ccccc3)n2)=C(O)c2sc(Cl)cc2S1(=O)=O [Example 8, 6-Chloro-4-hydroxy-2-methyl-N-[6-(3-phenylpropyl)]-2-pyridyl-2H-thieno[2,3-e]-1,2-thiazin-3-carbox-amide-1,1,-dioxide] | 
4 | 5.72 | 6.12 | CN1C(C(=O)Nc2cccc(CCCCc3ccccc3)n2)=C(O)c2sc(Cl)cc2S1(=O)=O [Example 9, 6-Chloro-4-hydroxy-2-methyl-N-[6-(4-phenylbutyl)]-2-pyridyl-2H-thieno[2,3-e]-1,2-thiazin-3-carbox-amide-1,1,-dioxide] | 
5 | 5.14 | 6.92 | CN1C(C(=O)Nc2cccc(COc3ccccc3)n2)=C(O)c2sc(Cl)cc2S1(=O)=O [Example 11] | 
6 | 5.29 | 6.82 | CN1C(C(=O)Nc2cccc(OCc3ccccc3)n2)=C(O)c2sc(Cl)cc2S1(=O)=O [Example 13, 6-Chloro-4-hydroxy-2-methyl-N-[6-phenylmethoxy]-2-pyridyl-2H-thieno[2,3-e]-1,2-thiazin-3-carbox-amide-1,1,-dioxide] | 
7 | 5.37 | 6.74 | CN1C(C(=O)Nc2cccc(/C=C/c3ccccc3)n2)=C(O)c2sc(Cl)cc2S1(=O)=O [Example 14, 6-Chloro-4-hydroxy-2-methyl-N-[6-((E)-2-phenylethenyl)]-2-pyridyl-2H-thieno[2,3-e]-1,2-thiazin-3-carbox-amide-1,1,-dioxide] | 

Second part, the compound before the results:

Row | SMILES | pIC50 (5-lipoxygenase) | pIC50 (cyclooxygenase) | inhibition of cyclooxygenase (in words) (cyclooxygenase; PGD2 formation)
8 | CN1C(C(=O)Nc2ccccn2)=C(O)c2sc(Cl)cc2S1(=O)=O [Compound A, 6-chloro-4-hydroxy-2-methylo-N-(2-pyridyl)-2h-thieno[2,3-e]-1,2-thiazine-3-carboxamide-1,1-dioxide, reference compound] | < 5.00 | 7.70 | inhibited only cyclooxygenase
9 | CN1C(C(=O)Nc2cccc(COc3ccc(F)cc3)n2)=C(O)c2sc(Cl)cc2S1(=O)=O [Example 10, 6-Chloro-4-hydroxy-2-methyl-N-[6-(4-fluorphenoxy-methyl)]-2-pyridyl-2H-thieno[2,3-e]-1,2-thiazin-3-carboxamide-1,1,-dioxide] | 5.32 | 6.35 | 
10 | CN1C(C(=O)Nc2cccc(-c3cc4ccccc4o3)n2)=C(O)c2sc(Cl)cc2S1(=O)=O [Example 12, 6-Chloro-4-hydroxy-2-methyl-N-[6-(2-benzo(b)furyl)]-2-pyridyl-2H-thieno[2,3-e]-1,2-thiazin-3-carbox-amide-1,1,-diol] | 5.70 | 7.80 | 
11 | CN1C(C(=O)Nc2cccc(OCc3ccc4ccccc4n3)n2)=C(O)c2sc(Cl)cc2S1(=O)=O [Example 17, 6-Chloro-4-hydroxy-2-methyl-N-[6-quinalinylmethoxy]-2-pyridyl-2H-thieno[2,3-e]-1,2-thiazin-3-carbox-amide-1,1,-dioxide] | 5.70 | 6.18 | 
12 | CN1C(C(=O)Nc2cccc(OCc3cc4ccccc4s3)n2)=C(O)c2sc(Cl)cc2S1(=O)=O [Example 20] | 5.49 | 6.46 | 
